# In patent US8585942B2, “Process and arrangement for producing particles utilizing subcritical fluids” (XSpray Microparticles AB, priority 2007, dated 2013):
# Legend:
# [1] = Particle size characterisation by laser diffraction (Mastersizer 2000); type: physicochemical; conditions: budesonide particles; for Particle size distribution D(0.1′): diameter for the smallest particles up to 10% of the material analyzed; for Particle size distribution d(0.5)′ (mean particle size): diameter for the smallest particles up to 50% of the material analyzed; for Particle size distribution d(0.9)′: diameter for the smallest particles up to 90% of the material analyzed
# Source text: The terms “particle size”, “particle size diameter” and “particle size distribution” in this specification refer to values obtained as given in the Experimental Part (laser diffraction by the use of Mastersizer 2000 from Malvern Instruments Ltd, Worcestershire, United Kindom). For the meaning of “mean particle size” or “mean particle diameter” see also the Experimental Part.
# A 2% w/v budesonide solution in acetone was introduced into the nozzle of FIG. 2 placed in the arrangement of FIG. 1 (except for the recycling capability) using a separate high-performance liquid chromatography pump 1.4 ml/min, together with the 125 g/min scCO2 (about 150 ml/min) which was modified with the make-up agent 4.2 ml/min acetone. The pressure in the system was 100 atm. and temperature was at 60° C. All of the streams contact within the nozzle and the budesonide powder formed and collected in the particle collecting chamber. The scCO2 and acetone was drained via the backpressure regulator outlet. Then, a further washing process was performed to eliminate the solvent mixed in the scCO2. After the washing process, the CO2 was slowly drained off from the chamber. Once the CO2 had been completely removed, the particles on the filter and on the wall were collected for analysis. The particles were characterized by laser diffraction in Mastersizer 2000 (Malvern Instruments Ltd, Worcestershire, United Kingdom).
# [2] = Particle morphology and size by scanning electron microscope (TM-1000 Hitachi); type: physicochemical; conditions: Example 6: solvent acetone, fluid water 10 ml/min, solution 0.2 ml/min, coaxial tube nozzle (FIG. 6)
# Description: It had two high pressure pumps (Jasco PU 980). One of the pump (624b) is used to feed the solution (0.2 ml/min Piroxicam in acetone (2% w/v)) (602) via a transport conduit (621) and the other pump (624a) is used to feed 10 ml/min water (fluid, anti-solvent) (603) via transport conduit (616) to a spray nozzle (601) placed in a particle collection chamber (605) containing at its outlet (625) a function for separating particles (filter) (615). The nozzle internal transport conduits were two stainless steel tubes (610,612) that were placed coaxially to each other with the inner one (612) connected to the pump (624b) for the solution and the outer one (610) to the pump (624a) for fluid. […] Particle sizes were determined to be less than 3 μm. […]
# A high pressure pump (Thar P50) (724a) is used to feed 50 ml/min water (fluid, anti-solvent) (703) via a transport conduit (716) and a high pressure pump (Jasco PU 980) (724b) is used to feed 1 ml/min solution of Piroxicam in acetone (2% w/v) (702) via transport conduit (721) to a nozzle (701) placed in a particle collecting chamber (705) containing at its outlet (725) a particle separation function in the form of a filter cup (715). […] The morphology and size of the crystals in the filter cup is determined using TM1000 Hitachi scanning electron microscope. Particle sizes were determined to be between 0.5 μm to 2 μm. […]
Particle sizes [2],Compound,Spec. Surface Area [1],Particle size distribution D(0.1′) [1],Particle size distribution d(0.5)′ (mean particle size) [1],Particle size distribution d(0.9)′ [1]
–,"CCCC1O[C@@H]2C[C@H]3[C@@H]4CCC5=CC(=O)C=C[C@]5(C)[C@H]4[C@@H](O)C[C@]3(C)[C@]2(C(=O)CO)O1 (stereo partly drawn) [Example 1, budesonide]",1.7 m^2/g,≦1.9 μm,≦4.0 μm,≦7.9 μm
–,"CCCC1O[C@@H]2C[C@H]3[C@@H]4CCC5=CC(=O)C=C[C@]5(C)[C@H]4[C@@H](O)C[C@]3(C)[C@]2(C(=O)CO)O1 (stereo partly drawn) [Example 2, budesonide]",1.7 m^2/g,≦1.1 μm,≦1.9 μm,≦3.4 μm
–,"CCCC1O[C@@H]2C[C@H]3[C@@H]4CCC5=CC(=O)C=C[C@]5(C)[C@H]4[C@@H](O)C[C@]3(C)[C@]2(C(=O)CO)O1 (stereo partly drawn) [Example 3, budesonide]",1.6 m^2/g,≦2.2 μm,≦4.2 μm,≦8.7 μm
–,"CCCC1O[C@@H]2C[C@H]3[C@@H]4CCC5=CC(=O)C=C[C@]5(C)[C@H]4[C@@H](O)C[C@]3(C)[C@]2(C(=O)CO)O1 (stereo partly drawn) [Example 4, budesonide]",0.6 m^2/g,≦6.3 μm,≦14.2 μm,≦26.7 μm
–,"CCCC1O[C@@H]2C[C@H]3[C@@H]4CCC5=CC(=O)C=C[C@]5(C)[C@H]4[C@@H](O)C[C@]3(C)[C@]2(C(=O)CO)O1 (stereo partly drawn) [Example 5, budesonide]",1.7 m^2/g,≦2.0 μm,≦4.1 μm,≦7.9 μm
less than 3 μm,CN1C(C(=O)Nc2ccccn2)=C(O)c2ccccc2S1(=O)=O [Piroxicam],–,–,–,–
